Reference: patent US10065953B2, “Imidazo[1,2-A]pyridine derivatives for use as inhibitors of human immunodeficiency virus replication” (priority 2014, dated 2018)
Counter-ions that a name gives are not always drawn.

Each compound was assayed on recombinant NL-Rluc virus (assay: Inhibition of HIV replication (NL-RLuc luciferase reporter virus in MT-2 cells)). Conditions: Human immunodeficiency virus 1, MT2, 120 h, MT-2 cells infected with NL-RLuc virus, 5 days of incubation, luciferase readout; serum condition of the table not specified.
Assay type: cell-based

SMILES	EC50 [nM]
Cc1cc2nc(-c3cccc(-c4ccccc4)c3)cn2c(N2CCC(C)(C)CC2)c1[C@H](OC(C)(C)C)C(=O)O [Example 1, (S)-2-(2-([1,1′-Biphenyl]-3-yl)-5-(4,4-dimethylpiperidin-1-yl)-7-methylimidazo[1,2-a]pyridin-6-yl)-2-(tert-butoxy)acetic Acid]	51
Cc1ccc(-c2cccc(-c3cn4c(N5CCC(C)(C)CC5)c([C@H](OC(C)(C)C)C(=O)O)c(C)cc4n3)c2)cc1 [Example 2, (S)-2-(tert-butoxy)-2-(5-(4,4-dimethylpiperidin-1-yl)-7-methyl-2-(4′-methyl-[1,1′-biphenyl]-3-yl)imidazo[1,2-a]pyridin-6-yl)acetic Acid]	32
Cc1cc2nc(-c3cccc(-c4ccc(F)cc4)c3)cn2c(N2CCC(C)(C)CC2)c1[C@H](OC(C)(C)C)C(=O)O [Example 3, (S)-2-(tert-Butoxy)-2-(5-(4,4-dimethylpiperidin-1-yl)-2-(4′-fluoro-[1,1′-biphenyl]-3-yl)-7-methylimidazo[1,2-a]pyridin-6-yl)acetic Acid]	26
Cc1cc2nc(-c3cccc(-c4cccc(F)c4)c3)cn2c(N2CCC(C)(C)CC2)c1[C@H](OC(C)(C)C)C(=O)O [Example 4, (S)-2-(tert-butoxy)-2-(5-(4,4-dimethylpiperidin-1-yl)-2-(3′-fluoro-[1,1′-biphenyl]-3-yl)-7-methylimidazo[1,2-a]pyridin-6-yl)acetic Acid]	21
Cc1cc2nc(-c3cccc(-c4ccc(F)cc4F)c3)cn2c(N2CCC(C)(C)CC2)c1[C@H](OC(C)(C)C)C(=O)O [Example 5, (S)-2-(tert-Butoxy)-2-(2-(2′,4′-difluoro-[1,1′-biphenyl]-3-yl)-5-(4,4-dimethylpiperidin-1-yl)-7-methylimidazo[1,2-a]pyridin-6-yl)acetic Acid]	29
Cc1ccc(-c2cccc(-c3cn4c(N5CCC(C)(C)CC5)c([C@H](OC(C)(C)C)C(=O)O)c(C)cc4n3)c2)c(F)c1 [Example 6, (S)-2-(tert-Butoxy)-2-(5-(4,4-dimethylpiperidin-1-yl)-2-(2′-fluoro-4′-methyl-[1,1′-biphenyl]-3-yl)-7-methylimidazo[1,2-a]pyridin-6-yl)acetic Acid]	21
Cc1cc2nc(-c3cccc(-c4cccc(C#N)c4)c3)cn2c(N2CCC(C)(C)CC2)c1[C@H](OC(C)(C)C)C(=O)O [Example 7, (S)-2-(tert-Butoxy)-2-(2-(3′-cyano-[1,1′-biphenyl]-3-yl)-5-(4,4-dimethylpiperidin-1-yl)-7-methylimidazo[1,2-a]pyridin-6-yl)acetic Acid]	6
Cc1cc2nc(-c3cccc(-c4cnn(Cc5ccccc5)c4)c3)cn2c(N2CCC(C)(C)CC2)c1[C@H](OC(C)(C)C)C(=O)O [Example 8, (S)-2-(2-(3-(1-Benzyl-1H-pyrazol-4-yl)phenyl)-5-(4,4-dimethylpiperidin-1-yl)-7-methylimidazo[1,2-a]pyridin-6-yl)-2-(tert-butoxy)acetic Acid]	22
Cc1cc2nc(-c3cccc(-c4cnn(C)c4)c3)cn2c(N2CCC(C)(C)CC2)c1[C@H](OC(C)(C)C)C(=O)O [Example 9, (S)-2-(tert-Butoxy)-2-(5-(4,4-dimethylpiperidin-1-yl)-7-methyl-2-(3-(1-methyl-1H-pyrazol-4-yl)phenyl)imidazo[1,2-a]pyridin-6-yl)acetic Acid]	6
Cc1cc(-c2cccc(-c3cn4c(N5CCC(C)(C)CC5)c([C@H](OC(C)(C)C)C(=O)O)c(C)cc4n3)c2)n(C)n1 [Example 10, (S)-2-(tert-Butoxy)-2-(2-(3-(1,3-dimethyl-1H-pyrazol-5-yl)phenyl)-5-(4,4-dimethylpiperidin-1-yl)-7-methylimidazo[1,2-a]pyridin-6-yl)acetic Acid]	7
Cc1cc2nc(-c3cccc(-c4cc(C(F)(F)F)nn4C)c3)cn2c(N2CCC(C)(C)CC2)c1[C@H](OC(C)(C)C)C(=O)O [Example 11, (S)-2-(tert-Butoxy)-2-(5-(4,4-dimethylpiperidin-1-yl)-7-methyl-2-(3-(1-methyl-3-(trifluoromethyl)-1H-pyrazol-5-yl)phenyl)imidazo[1,2-a]pyridin-6-yl)acetic Acid]	21
Cc1ccc(-c2c([C@H](OC(C)(C)C)C(=O)O)c(C)cc3nc(-c4cccc(-c5ccc(F)cc5)c4)cn23)cc1 [Example 14, (S)-2-(tert-butoxy)-2-(2-(4′-fluoro-[1,1′-biphenyl]-3-yl)-7-methyl-5-(p-tolyl)imidazo[1,2-a]pyridin-6-yl)acetic Acid]	20
Cc1cc2nc(-c3cccc(-c4ccc(F)cc4)c3)cn2c(-c2ccc(F)cc2)c1[C@H](OC(C)(C)C)C(=O)O [Example 17, (S)-2-(tert-Butoxy)-2-(2-(4′-fluoro-[1,1′-biphenyl]-3-yl)-5-(4-fluorophenyl)-7-methylimidazo[1,2-a]pyridin-6-yl)acetic Acid]	159
Cc1cc2nc(-c3cccc(-c4ccc(F)cc4)c3)cn2c(-c2ccc3c(c2)CCCO3)c1[C@H](OC(C)(C)C)C(=O)O [Example 18, (S)-2-(tert-Butoxy)-2-(5-(chroman-6-yl)-2-(4′-fluoro-[1,1′-biphenyl]-3-yl)-7-methylimidazo[1,2-a]pyridin-6-yl)acetic Acid]	7
Cc1cc2nc(-c3cccc(-c4ccc(F)cc4)c3)cn2c(-c2ccc3c(c2)C(C)(C)CCO3)c1[C@H](OC(C)(C)C)C(=O)O [Example 19, (S)-2-(tert-Butoxy)-2-(5-(4,4-dimethylchroman-6-yl)-2-(4′-fluoro-[1,1′-biphenyl]-3-yl)-7-methylimidazo[1,2-a]pyridin-6-yl)acetic Acid]	95

Same assay, conditions: MT-2 cells infected with NL-RLuc virus, 5 days of incubation, luciferase readout; serum condition of the table not specified

SMILES	EC50 [nM]
Cc1cc2nc(-c3cccc(-c4ccc(F)cc4)c3)cn2c(-c2ccc3c4c(ccnc24)CCO3)c1[C@H](OC(C)(C)C)C(=O)O [Example 12, (2S)-2-(tert-Butoxy)-2-(5-(2,3-dihydropyrano[4,3,2-de]quinolin-7-yl)-2-(4′-fluoro-[1,1′-biphenyl]-3-yl)-7-methylimidazo[1,2-a]pyridin-6-yl)acetic Acid.TFA]	19
Cc1cc2nc(-c3cccc(-c4ccc(F)cc4)c3)cn2c(-c2ccc3c4c(ccnc24)CCO3)c1[C@H](OC(C)(C)C)C(=O)O [Example 13, (2S)-2-(tert-Butoxy)-2-(5-(2,3-dihydropyrano[4,3,2-de]quinolin-7-yl)-2-(4′-fluoro-[1,1′-biphenyl]-3-yl)-7-methylimidazo[1,2-a]pyridin-6-yl)acetic Acid.TFA]	398
Cc1cc2nc(-c3cccc(-c4ccc(F)cc4)c3)cn2c(-c2cc(F)c3c(c2C)CCCO3)c1[C@H](OC(C)(C)C)C(=O)O [Example 15, (2S)-2-(tert-Butoxy)-2-(5-(8-fluoro-5-methylchroman-6-yl)-2-(4′-fluoro-[1,1′-biphenyl]-3-yl)-7-methylimidazo[1,2-a]pyridin-6-yl)acetic Acid]	175
Cc1cc2nc(-c3cccc(-c4ccc(F)cc4)c3)cn2c(-c2cc(F)c3c(c2C)CCCO3)c1[C@H](OC(C)(C)C)C(=O)O [Example 16, (2S)-2-(tert-Butoxy)-2-(5-(8-fluoro-5-methylchroman-6-yl)-2-(4′-fluoro-[1,1′-biphenyl]-3-yl)-7-methylimidazo[1,2-a]pyridin-6-yl)acetic Acid]	4
